What is called Km is the concentration of substrate that gives half-maximal velocity. As a reminder, the kcat is the number of substrate molecules converted per active site and unit of time at saturation.

Like-named read-outs stand apart in the source and are kept apart here.

Three compounds from patent publication EP0850306B1, “LACCASES WITH AN ALTERED pH ACTIVITY PROFILE” (Novozymes Biotech, Inc., priority 1995, dated 1997) can be followed below.

Data set [1] addresses T1, Myceliophthora thermophila laccase (MtL) mutant "T", V509L/S510E/G511A (pBANe22T) (Thermothelomyces thermophilus, UniProt G2QG31, G554A/S553E/V552L).
T1 sequence (G2QG31 48-602 V552L/S553E/G554A): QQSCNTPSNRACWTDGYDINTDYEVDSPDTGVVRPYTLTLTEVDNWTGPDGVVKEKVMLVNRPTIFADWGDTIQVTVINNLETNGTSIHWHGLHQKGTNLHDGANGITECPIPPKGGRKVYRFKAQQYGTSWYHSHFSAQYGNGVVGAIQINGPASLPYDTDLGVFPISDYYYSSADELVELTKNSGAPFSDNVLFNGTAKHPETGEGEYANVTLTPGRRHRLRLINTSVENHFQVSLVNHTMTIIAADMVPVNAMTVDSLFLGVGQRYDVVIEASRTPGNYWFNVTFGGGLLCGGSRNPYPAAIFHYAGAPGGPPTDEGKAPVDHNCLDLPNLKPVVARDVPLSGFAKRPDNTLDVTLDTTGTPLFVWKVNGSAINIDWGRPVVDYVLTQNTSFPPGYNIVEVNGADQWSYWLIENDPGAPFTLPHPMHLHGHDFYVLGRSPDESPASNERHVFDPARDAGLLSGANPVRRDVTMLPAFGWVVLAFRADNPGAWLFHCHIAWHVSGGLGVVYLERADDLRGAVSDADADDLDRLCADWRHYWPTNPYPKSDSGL
Briefly: Laccase substrate oxidation kinetics (Km, kcat), MtL mutant "T". To be noted: read-out: Km (ABTS); 8 mM MES-NaOH buffer, pH 5.3; spectroscopic. Format: biochemical. Here is the method:
(§1) The absorbance at 530 nm is measured over time in a UV-VIS spectrophotometer. One laccase unit (LACU) is defined as the amount of enzyme which oxidizes one µmole of substrate per minute at 30°C.
(§2) Km and kcat are obtained from the initial rate (v), enzyme concentration (E), and substrate concentration (S) in accordance to the equation v = kcat ES/( Km + S) by non-linear regression fitting using the Prizm program (GraphPad, San Diego, CA). […] The O2 concentration in air-saturated buffer solution is assumed as the same in plain water (0.28 mM).

Data set [2] addresses T2, Rhizoctonia solani laccase isozyme 4 (RsL, rsl4), wild type (pJiWa59), SEQ ID NOS:24 and 25 (Thanatephorus cucumeris, UniProt Q02081).
T2 construct: made in house; host or cells: Aspergillus oryzae HowB104
T2 sequence (Q02081 20-531): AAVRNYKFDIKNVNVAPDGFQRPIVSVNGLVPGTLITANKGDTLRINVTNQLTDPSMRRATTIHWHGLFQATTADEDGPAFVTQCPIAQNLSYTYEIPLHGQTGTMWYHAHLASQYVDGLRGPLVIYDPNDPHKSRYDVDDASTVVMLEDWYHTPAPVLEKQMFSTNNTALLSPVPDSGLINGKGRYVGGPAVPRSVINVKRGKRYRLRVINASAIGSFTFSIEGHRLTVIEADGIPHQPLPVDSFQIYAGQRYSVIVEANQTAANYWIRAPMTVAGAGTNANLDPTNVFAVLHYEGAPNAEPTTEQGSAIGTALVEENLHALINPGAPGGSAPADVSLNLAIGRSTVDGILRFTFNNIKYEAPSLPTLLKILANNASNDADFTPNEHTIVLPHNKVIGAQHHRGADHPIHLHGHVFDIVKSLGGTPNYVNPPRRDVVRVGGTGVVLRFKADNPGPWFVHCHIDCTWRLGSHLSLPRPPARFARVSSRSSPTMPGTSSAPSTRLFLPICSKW
Briefly: Laccase substrate oxidation kinetics (Km, kcat), RsL wild type. Format: biochemical. To be noted: read-out: Km (ABTS); 8 mM MES-NaOH buffer, pH 5.3; spectroscopic. As to the method: as §1, §2

Data set [3] has as its target T3, Myceliophthora thermophila laccase (MtL, lcc-1), wild type (pRaMB17), SEQ ID NOS:26 and 27 (Thermothelomyces thermophilus, UniProt G2QG31).
T3 sequence (G2QG31 48-602): T1 sequence (G2QG31 48-602 V552L/S553E/G554A)
As to the kind of experiment: Laccase substrate oxidation kinetics (Km, kcat), MtL wild type. Format: biochemical. To be noted: 8 mM MES-NaOH buffer, pH 5.3, spectroscopic. Here is the method: as §1, §2

Data set [4] has as its system COc1cc(C=NN=Cc2cc(OC)c(O)c(OC)c2)cc(OC)c1O. As to the kind of experiment: Laccase substrate oxidation kinetics (Km, kcat), MtL mutant "T". Format: biochemical, Myceliophthora thermophila. To be noted: other: 8 mM MES-NaOH buffer, pH 5.3, spectroscopic. Here is the method:
as §1, §2

For the compound `CCn1c(=NN=c2sc3cc(S(=O)(=O)O)ccc3n2CC)sc2cc(S(=O)(=O)O)ccc21` [ABTS, 2,2'-azinobis(3-ethylbenzthiazoline-6-sulfonic acid)], the Michaelis constant (Km) in data set [1] was found to be 11 ± 2 µM; in data set [2], 52 ± 6 µM; in data set [3] (read-out: Km (ABTS)), 110 ± 20 µM.

Take `COc1cc(C=NN=Cc2cc(OC)c(O)c(OC)c2)cc(OC)c1O` [SGZ, syringaldazine]: the “kcat (SGZ)” value in data set [3] stood at 75 ± 3.33 s⁻¹. Besides, the Km in data set [3] (read-out: Km (SGZ)) came to 1.4 ± 0.2 µM.

Consider “Myceliophthora thermophila laccase (MtL) mutant "T", V509L/S510E/G511A (pBANe22T) (Thermothelomyces thermophilus ATCC 42464; G554A/S553E/V552L)”, for which, in data set [4], the Km is on record as 0.9 ± 0.2 µM and the turnover number (kcat) stood at 6 ± 0.333 s⁻¹.
